Source: ChEMBL document CHEMBL5500364, “Design, synthesis, and biological evaluation of some 2-(3-oxo-5,6-diphenyl-1,2,4-triazin-2(3H)-yl)-N-phenylacetamide hybrids as MTDLs for Alzheimer's disease therapy” (Eur J Med Chem, 2024)
Active and inactive are the calls of the source. No cut-off for these calls is given here.

Experiments:
Acetylcholinesterase = Acetylcholinesterase (Homo sapiens, UniProt P22303); test: Inhibition of human erythrocyte AChE using acetylthiocholine iodide as substrate preincubated for 30 mins followed by substrate addition by DTNB based Ellman's colorimetric method
[1] = target: Dual specificity tyrosine-phosphorylation-regulated kinase 1A (Homo sapiens, UniProt Q13627); test: Inhibition of Dyrk1A (unknown origin) incubated for 1 hrs in presence of [gamma-33P]-ATP by microplate scintillation counter based radiometric protein kinase assay
Beta-secretase 1 = Beta-secretase 1 (Homo sapiens, UniProt P56817); test: Inhibition of human BACE-1 using (7-Methoxycoumarin-4-acetyl-[Asn670, Leu671]-Amyloid beta/A4 precursor protein 770 fragments 667-676- (2, 4-dinitrophenyl) Lys-Arg-Arg amide trifluoroacetate salt as substrate incubated for 2 hrs by FRET-based analysis
Cholinesterase = Cholinesterase (Homo sapiens, UniProt P06276); test: Inhibition of human BChE using butyrylthiocholine iodide as substrate preincubated for 30 mins followed by substrate addition by DTNB based Ellman's colorimetric method
Rattus norvegicus [2] = test: (§1) Reversal of amyloid beta (1 to 42 residues) induced cognitive impairment in Wistar rat assessed as decrease in BACE-1 level in CA1 region of hippocampus at 5 mg/kg, po pretreated with amyloid beta for 7 days followed by compound administration for 9 days and measured after 5 days by immuno histochemical analysis; assay type: functional, organism-based; details: time 14.0 day
Rattus norvegicus [3] = test: as §1, with “DG” for “CA1”; assay type: functional, organism-based; details: time 14.0 day
Rattus norvegicus [4] = test: (§2) Antialzheimer activity against scopolamine-induced amnesia in male Wistar rat model assessed as increase in total arm enteries at 5 mg/kg, po preadministered with compound for 30 mins starting from 7 th day trail followed by scopolamine administration and measured after 5 mins by Y maze test; assay type: functional, organism-based; details: time 35.0 min
[5] = Neurotoxicity in human SH-SY5Y cells assessed as reduction in cell population at 80 uM incubated for 24 hrs by MTT assay
Rattus norvegicus [6] = test: as §1, with “CA3” for “CA1”; assay type: functional, organism-based; details: time 14.0 day
Rattus norvegicus [7] = test: as §2, with “restoration of memory function by measuring percentage spontaneous alteration” for “increase in total arm enteries”; assay type: functional, organism-based; details: time 35.0 min
Rattus norvegicus [8] = test: as §1, with “reduction” for “decrease”, “neural dispersion at DG region” for “BACE-1 level”, “in” for “in CA1 region of”, “Nissl's staining based” for “immuno histochemical”; assay type: functional, organism-based; details: time 14.0 day
Rattus norvegicus [9] = test: as §1, with “amyloid-beta” for “BACE-1”; assay type: functional, organism-based; details: time 14.0 day
Rattus norvegicus [10] = test: Reversal of amyloid beta (1 to 42 residues) induced cognitive impairment in Wistar rat assessed as increase in platform crossings at 5 mg/kg, po pretreated with amyloid beta for 7 days followed by compound administration for 9 days and measured after 1 days by Morris water maze test; assay type: functional, organism-based; details: time 10.0 day
Rattus norvegicus [11] = test: as §1, with “amyloid-beta” for “BACE-1”, “CA3” for “CA1”; assay type: functional, organism-based; details: time 14.0 day
Rattus norvegicus [12] = test: (§3) Reversal of amyloid beta (1 to 42 residues) induced cognitive impairment in Wistar rat assessed as reduction in focal gliosis in cerebral cortex at 5 mg/kg, po pretreated with amyloid beta for 7 days followed by compound administration for 9 days and measured after 5 days by Nissl's staining based analysis; assay type: functional, organism-based; details: time 14.0 day
Rattus norvegicus [13] = test: as §1, with “amyloid-beta” for “BACE-1”, “DG” for “CA1”; assay type: functional, organism-based; details: time 14.0 day
Rattus norvegicus [14] = test: Reversal of amyloid beta (1 to 42 residues) induced cognitive impairment in Wistar rat assessed as reduction in escape latency time at 5 mg/kg, po pretreated with amyloid beta for 7 days followed by compound administration for 9 days and measured after 5 days by Morris water maze test; assay type: functional, organism-based; details: time 14.0 day
Rattus norvegicus [15] = test: Reversal of amyloid beta (1 to 42 residues) induced cognitive impairment in Wistar rat assessed as decrease in alpha-synuclein protein level at 5 mg/kg, po pretreated with amyloid beta for 7 days followed by compound administration for 9 days and measured after 5 days by Western blot analysis; assay type: functional, organism-based; details: time 14.0 day
Rattus norvegicus [16] = test: Reversal of amyloid beta (1 to 42 residues) induced cognitive impairment in Wistar rat assessed as reduction in escape latency time at 5 mg/kg, po pretreated with amyloid beta for 7 days followed by compound administration for 9 days and measured after 1 days by Morris water maze test; assay type: functional, organism-based; details: time 10.0 day
Rattus norvegicus [17] = test: as §3, with “appearance of pyknotic neuron bodies” for “focal gliosis”, “hippocampus” for “cerebral cortex”; assay type: functional, organism-based; details: time 14.0 day
Rattus norvegicus [18] = test: Reversal of amyloid beta (1 to 42 residues) induced cognitive impairment in Wistar rat assessed as increase in platform crossings at 5 mg/kg, po pretreated with amyloid beta for 7 days followed by compound administration for 9 days and measured after 5 days by Morris water maze test; assay type: functional, organism-based; details: time 14.0 day
Rattus norvegicus [19] = test: Reversal of amyloid beta (1 to 42 residues) induced cognitive impairment in Wistar rat assessed as decrease in APP protein level at 5 mg/kg, po pretreated with amyloid beta for 7 days followed by compound administration for 9 days and measured after 5 days by Western blot analysis; assay type: functional, organism-based; details: time 14.0 day
Rattus norvegicus [20] = test: Reversal of amyloid beta (1 to 42 residues) induced cognitive impairment in Wistar rat assessed as decrease in BACE-1 protein level at 5 mg/kg, po pretreated with amyloid beta for 7 days followed by compound administration for 9 days and measured after 5 days by Western blot analysis; assay type: functional, organism-based; details: time 14.0 day
Rattus norvegicus [21] = test: Reversal of amyloid beta (1 to 42 residues) induced cognitive impairment in Wistar rat assessed as decrease in Tau protein level at 5 mg/kg, po pretreated with amyloid beta for 7 days followed by compound administration for 9 days and measured after 5 days by Western blot analysis; assay type: functional, organism-based; details: time 14.0 day
[22] = target: Amyloid-beta precursor protein (Homo sapiens) (UniProt P05067); test: Inhibition of amyloid beta (1 to 42) (unknown origin) aggregation assessed as appearance of thinner aggregates at 50 uM incubated for 48 hrs by TEM imaging analysis
[23] = target: Amyloid-beta precursor protein (Homo sapiens) (UniProt P05067); test: Inhibition of amyloid beta (1 to 42) (unknown origin) self aggregation ar 5 to 20 uM incubated for 48 hrs by Thioflavin T fluorescence assay relative to control; details: dose 5-20 µM
[24] = target: Amyloid-beta precursor protein (Homo sapiens) (UniProt P05067); test: Inhibition of amyloid beta (1 to 42) (unknown origin) aggregation assessed as reduction in amyloid-beta aggregates at 50 uM incubated for 48 hrs by TEM analysis
[25] = target: Amyloid-beta precursor protein (Homo sapiens) (UniProt P05067); test: Inhibition of amyloid beta (1 to 42) (unknown origin) aggregation assessed as maximum peak height of aggregates incubated for 48 hrs by AFM analysis
[26] = target: Amyloid-beta precursor protein (Homo sapiens) (UniProt P05067); test: Inhibition of amyloid beta (1 to 42) (unknown origin) aggregation assessed as reduction in size of amyloid-beta aggregates measured within 48 hrs by SEM imaging analysis
[27] = Permeability of compound in PBS at pH 7.4 incubated for 18 hrs by PAMPA-BBB assay
SH-SY5Y [28] = test: (§4) Neuroprotective activity against amyloid-beta(1 to 42) induced oxidative stress in differentiated human SH-SY5Y cells assessed as increase in cell viability at 40 uM preincubated with amyloid-beta (1 to 42 ) for 24 hrs followed by compound addition and measured after 48 hrs by MTT assay relative to control; assay type: functional
[29] = target: Amyloid-beta precursor protein (Homo sapiens) (UniProt P05067); test: Inhibition of human AchE-induced amyloid beta (1 to 42) (unknown origin) aggregation at 5 to 20 uM incubated for 48 hrs by Thioflavin T fluorescence assay relative to control; details: dose 5-20 µM
SH-SY5Y [30] = test: as §4, with “72” for “48”; assay type: functional

Sequence of Acetylcholinesterase (P22303 whole entry): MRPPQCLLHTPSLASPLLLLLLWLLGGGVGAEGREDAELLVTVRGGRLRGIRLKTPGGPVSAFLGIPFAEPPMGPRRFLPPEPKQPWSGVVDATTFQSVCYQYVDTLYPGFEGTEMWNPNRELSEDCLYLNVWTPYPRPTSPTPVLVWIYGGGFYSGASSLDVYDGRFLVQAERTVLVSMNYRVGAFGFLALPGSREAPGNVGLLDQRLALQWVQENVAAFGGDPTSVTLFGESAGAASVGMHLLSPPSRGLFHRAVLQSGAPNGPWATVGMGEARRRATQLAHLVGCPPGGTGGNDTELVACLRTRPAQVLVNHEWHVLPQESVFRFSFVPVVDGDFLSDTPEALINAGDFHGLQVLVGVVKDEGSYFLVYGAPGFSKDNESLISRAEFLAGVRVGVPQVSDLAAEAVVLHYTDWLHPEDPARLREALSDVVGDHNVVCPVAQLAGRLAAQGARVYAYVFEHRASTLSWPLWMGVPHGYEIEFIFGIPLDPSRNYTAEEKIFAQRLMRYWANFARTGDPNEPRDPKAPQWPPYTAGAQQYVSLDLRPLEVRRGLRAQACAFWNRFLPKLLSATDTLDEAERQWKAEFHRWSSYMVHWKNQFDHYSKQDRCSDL
Sequence of Amyloid-beta precursor protein (Homo sapiens) (P05067 whole entry): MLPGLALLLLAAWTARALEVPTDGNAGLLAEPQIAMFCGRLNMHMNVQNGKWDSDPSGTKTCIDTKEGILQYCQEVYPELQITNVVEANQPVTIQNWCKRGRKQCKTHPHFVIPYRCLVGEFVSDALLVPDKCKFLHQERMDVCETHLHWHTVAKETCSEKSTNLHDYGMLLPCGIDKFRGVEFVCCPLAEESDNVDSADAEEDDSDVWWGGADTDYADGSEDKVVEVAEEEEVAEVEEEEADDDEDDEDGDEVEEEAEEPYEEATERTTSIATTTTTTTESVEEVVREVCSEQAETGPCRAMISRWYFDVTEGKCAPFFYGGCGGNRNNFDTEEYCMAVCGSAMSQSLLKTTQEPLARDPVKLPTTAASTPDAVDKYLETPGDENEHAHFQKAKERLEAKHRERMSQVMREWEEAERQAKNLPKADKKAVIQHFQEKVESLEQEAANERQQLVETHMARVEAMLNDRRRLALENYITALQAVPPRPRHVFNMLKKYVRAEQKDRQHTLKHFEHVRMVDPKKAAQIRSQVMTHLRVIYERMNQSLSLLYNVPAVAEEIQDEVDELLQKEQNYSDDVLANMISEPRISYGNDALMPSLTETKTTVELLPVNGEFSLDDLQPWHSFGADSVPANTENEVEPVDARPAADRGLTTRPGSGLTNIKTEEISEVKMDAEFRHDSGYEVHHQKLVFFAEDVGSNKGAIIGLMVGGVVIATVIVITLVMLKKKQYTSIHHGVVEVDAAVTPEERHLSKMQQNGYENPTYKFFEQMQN
Sequence of Beta-secretase 1 (P56817 whole entry, the tested form may be a part): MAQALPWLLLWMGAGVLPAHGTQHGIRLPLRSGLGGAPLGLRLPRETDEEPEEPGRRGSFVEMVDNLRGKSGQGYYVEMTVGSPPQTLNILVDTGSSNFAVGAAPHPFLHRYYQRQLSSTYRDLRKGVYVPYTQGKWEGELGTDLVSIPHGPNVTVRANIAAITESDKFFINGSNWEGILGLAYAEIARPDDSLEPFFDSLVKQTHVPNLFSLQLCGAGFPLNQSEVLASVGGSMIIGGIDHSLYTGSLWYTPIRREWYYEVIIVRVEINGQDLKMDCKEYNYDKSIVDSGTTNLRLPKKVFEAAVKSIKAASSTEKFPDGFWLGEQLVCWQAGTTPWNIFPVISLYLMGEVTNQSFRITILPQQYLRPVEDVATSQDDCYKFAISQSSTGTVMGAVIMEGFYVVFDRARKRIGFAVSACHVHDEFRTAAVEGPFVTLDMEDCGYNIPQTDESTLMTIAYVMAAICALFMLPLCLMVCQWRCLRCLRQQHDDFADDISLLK
Sequence of Cholinesterase (P06276 whole entry, the tested form may be a part): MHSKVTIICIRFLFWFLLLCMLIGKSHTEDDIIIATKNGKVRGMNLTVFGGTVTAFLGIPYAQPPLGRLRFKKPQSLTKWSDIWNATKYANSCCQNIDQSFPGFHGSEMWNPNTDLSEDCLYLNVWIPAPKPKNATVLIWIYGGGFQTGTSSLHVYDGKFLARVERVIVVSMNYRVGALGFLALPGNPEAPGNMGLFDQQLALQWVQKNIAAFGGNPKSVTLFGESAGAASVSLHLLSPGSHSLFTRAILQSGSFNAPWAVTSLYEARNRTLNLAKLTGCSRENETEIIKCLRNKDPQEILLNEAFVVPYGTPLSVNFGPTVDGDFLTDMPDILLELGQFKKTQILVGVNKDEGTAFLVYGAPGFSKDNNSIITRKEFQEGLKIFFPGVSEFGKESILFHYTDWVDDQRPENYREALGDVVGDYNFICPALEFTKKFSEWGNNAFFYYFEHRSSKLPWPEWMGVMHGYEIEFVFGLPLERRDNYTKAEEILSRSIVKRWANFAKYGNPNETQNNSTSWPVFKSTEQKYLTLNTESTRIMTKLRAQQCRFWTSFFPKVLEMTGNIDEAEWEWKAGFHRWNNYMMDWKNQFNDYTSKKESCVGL

SMILES	IC50 (Acetylcholinesterase) [µM]	IC50 [1] [µM]	IC50 (Beta-secretase 1) [µM]	IC50 (Cholinesterase) [µM]	also measured
O=C(Cn1nc(-c2ccccc2)c(-c2ccccc2)nc1=O)Nc1ccccc1[N+](=O)[O-]	0.734	> 10	0.912	> 10	–
O=C(Cn1nc(-c2ccccc2)c(-c2ccccc2)nc1=O)Nc1ccc(F)cc1	0.836	> 10	0.694	> 10	–
COc1cc2c(cc1OC)C(=O)C(CC1CCN(Cc3ccccc3)CC1)C2 (centres undefined) [DONEPEZIL]	–	–	–	–	Activity (Rattus norvegicus [2]): Active; Activity (Rattus norvegicus [3]): Active; Activity (Rattus norvegicus [4]): Active; Activity [5]: Non-Toxic; Activity (Rattus norvegicus [6]): Active; Activity (Rattus norvegicus [7]): Active; Activity (Rattus norvegicus [8]): Active; Activity (Rattus norvegicus [9]): Active; Activity (Rattus norvegicus [10]): inactive; Activity (Rattus norvegicus [11]): Active; Activity (Rattus norvegicus [12]): Active; Activity (Rattus norvegicus [13]): Active; Activity (Rattus norvegicus [14]): Active; Activity (Rattus norvegicus [15]): Active; Activity (Rattus norvegicus [16]): inactive; Activity (Rattus norvegicus [17]): Active; Activity (Rattus norvegicus [18]): Active; Activity (Rattus norvegicus [19]): Active; Activity (Rattus norvegicus [20]): Active; Activity (Rattus norvegicus [21]): Active
O=C(Cn1nc(-c2ccccc2)c(-c2ccccc2)nc1=O)Nc1ccc(F)cc1F	1.16	> 10	1.44	> 10	–
N#Cc1cccc(NC(=O)Cn2nc(-c3ccccc3)c(-c3ccccc3)nc2=O)c1	1.25	> 10	1.1	> 10	–
Cc1ccccc1NC(=O)Cn1nc(-c2ccccc2)c(-c2ccccc2)nc1=O	0.953	> 10	0.742	> 10	–
O=C(Cn1nc(-c2ccccc2)c(-c2ccccc2)nc1=O)Nc1ccc(Cl)cc1	1.41	> 10	1.93	> 10	–
O=C(Cn1nc(-c2ccccc2)c(-c2ccccc2)nc1=O)Nc1ccccc1O	0.753	> 10	0.953	> 10	–
O=C(Cn1nc(-c2ccccc2)c(-c2ccccc2)nc1=O)Nc1ccc(Br)cc1	0.941	> 10	1.86	> 10	–
O=C(Cn1nc(-c2ccccc2)c(-c2ccccc2)nc1=O)Nc1cc(Br)cc(Br)c1	0.772	> 10	1.25	> 10	–
O=C(Cn1nc(-c2ccccc2)c(-c2ccccc2)nc1=O)Nc1ccccc1Cl	0.719	> 10	0.609	> 10	–
O=C(Cn1nc(-c2ccccc2)c(-c2ccccc2)nc1=O)Nc1ccc(O)cc1	1.15	> 10	1.62	> 10	–
COc1cc(/C=C/C(=O)CC(=O)/C=C/c2ccc(O)c(OC)c2)ccc1O	–	–	–	–	inhibition [22]: Active; inhibition [23]: 21.5%; inhibition [24]: Active; Activity [25]: 206 nm; inhibition [26]: Active
N#Cc1ccccc1NC(=O)Cn1nc(-c2ccccc2)c(-c2ccccc2)nc1=O	1.86	> 10	1.48	> 10	–
O=C(Cn1nc(-c2ccccc2)c(-c2ccccc2)nc1=O)Nc1ccc([N+](=O)[O-])cc1	1.07	> 10	1.32	> 10	–
O=C(Cn1nc(-c2ccccc2)c(-c2ccccc2)nc1=O)Nc1ccc([N+](=O)[O-])cc1Cl	0.699	2	1.83	> 10	–
O=C(Cn1nc(-c2ccccc2)c(-c2ccccc2)nc1=O)Nc1cccc([N+](=O)[O-])c1	1.12	> 10	1.25	> 10	–
O=C(Cn1nc(-c2ccccc2)c(-c2ccccc2)nc1=O)Nc1cccc(Cl)c1	1.16	> 10	1.44	> 10	–
COc1cc(NC(=O)Cn2nc(-c3ccccc3)c(-c3ccccc3)nc2=O)cc(OC)c1OC	0.708	> 10	0.648	> 10	Papp at 18 h [27]: 5.81 ×10⁻⁶ cm/s; Activity [5]: Non-Toxic; Activity (SH-SY5Y [28]): 71%; inhibition [23]: 19.3%; inhibition [29]: 33.6%; Activity (SH-SY5Y [30]): 78%
